The IC50 is the concentration that inhibits the measured activity by half.

Each structure is given as a SMILES string.

For the test, the target named is cAMP and cAMP-inhibited cGMP 3',5'-cyclic phosphodiesterase 10A (Homo sapiens, UniProt Q9Y233). The test can be described thus: PDE10A assay. The method, then:
Compounds were diluted in 20 mM HEPES/NaOH (pH 7.5), 10 mM MgCl2 and 0.05 mg/ml bovine serum albumin. A fixed amount of 2 ng/well human PDE10A enzyme was added and incubated at room temperature for 15 min under agitation. The reaction was started by the addition of the substrate cocktail [3H]cGMP (Perkin Elmer NET337001MC, S.A. 13.5 Ci/mmol) / cGMP at a final concentration of 50 nM and incubated for an additional 15 min. The reaction was stopped by the addition of 0.5 mg/well of Y-Si SPA beads. The plates were shaken for 1 h, followed by a brief centrifugation (170 g for 1 min). The radioactivity bound to the beads was estimated using a TopCount (Perkin-Elmer). For the determination of IC50 values, a four parameters logistics equation was used. pIC50 is defined as − log10(IC50).
The compound `O=C(Nc1cc(Cl)ncc1Br)c1ccc2cc(-c3ccccc3)nn2c1` [Roche-Dataset for PDE10A, Compound 399] yielded an IC50 of 354 nM.

`O=C(Nc1cc(C2CCCC2)n[nH]1)c1nc(C2CC2)ccc1Nc1cncnc1` [Roche-Dataset for PDE10A, Compound 653]: the concentration for half-maximal inhibition (IC50) came to 375 nM.

As for `Cc1ncc(C)n2nc(CCc3nc(N4CC5CC4C5)nn3C)nc12` [Roche-Dataset for PDE10A, Compound 524], the half-inhibitory concentration (IC50) came to 858 nM.

On to `CC(C)c1cc(NC(=O)c2c(C(=O)N3CCC3)cnn2C)[nH]n1` [Roche-Dataset for PDE10A, Compound 1070], for which the IC50 came to 10000 nM.

As for `CN(C)c1nc(OCc2cc3ccccn3n2)nc2ccc(Cl)cc12` [Roche-Dataset for PDE10A, Compound 586], the IC50 came out at 423 nM.

`CN(C)C(=O)Cc1cccc(NC(=O)c2nc(C3CC3)cnc2Nc2cncnc2)c1` [Roche-Dataset for PDE10A, Compound 693] returned an IC50 of 97 nM. This IC50 lies about 4.4-fold lower than the previous one.

Regarding `CNC(=O)c1c(NC(=O)c2nc(C3CC3)ccc2Nc2cncnc2)cnn1C` [Roche-Dataset for PDE10A, Compound 1053], half-maximal inhibition (IC50) was put at 14 nM.

In the case of `Cn1nc(-c2ccccn2)cc1NC(=O)c1cc(Br)c[nH]c1=O` [Roche-Dataset for PDE10A, Compound 636], the midpoint of inhibition, the IC50, lay at 295 nM.

Compound `Cn1ncc(C(=O)N2CCC2)c1C(=O)Nc1ccc2nc(N3CCCC3)nn2c1` [Roche-Dataset for PDE10A, Compound 469] displayed an IC50 of 0.48 nM.

Compound `Cn1nc(-c2ccccn2)cc1NC(=O)c1ccn(CC(F)(F)F)n1` [Roche-Dataset for PDE10A, Compound 662] gave an IC50 of 10000 nM.

As to `O=C1c2ccccc2C(=O)N1CCc1nc(-c2ccccc2)cs1` [Roche-Dataset for PDE10A, Compound 150], the midpoint of inhibition, the IC50, lay at 342 nM.

Compound `COCC1(CNC(=O)c2nc(C3CC3)cnc2Nc2cncnc2)CC1` [Roche-Dataset for PDE10A, Compound 1010] displayed an IC50 of 1790 nM.

In turn, `Cn1nc(C2CCCC2)cc1NC(=O)c1nc(C2CC2)ccc1Nc1cncnc1` [Roche-Dataset for PDE10A, Compound 677] showed a half-inhibitory concentration (IC50) of 439 nM. Compared with the last compound, the IC50 is about 4.1-fold lower.

`CC(=O)Nc1cccc(NC(=O)c2nc(C3CC3)cnc2Nc2cncnc2)c1` [Roche-Dataset for PDE10A, Compound 571] yielded an IC50 of 35 nM. Against the preceding compound, the IC50 is about 13-fold lower.

As to `CN(C(=O)c1cnn(C)c1C(=O)N[C@@H]1CCn2cc(-c3ccccc3)nc2C1)C1COC1` [Roche-Dataset for PDE10A, Compound 248], the IC50 came to 44 nM.

`Cn1ncc(C(=O)N2CCOCC2)c1C(=O)Nc1cn(-c2cccc(C(F)(F)F)n2)cn1` [Roche-Dataset for PDE10A, Compound 719] yielded an IC50 of 8860 nM.

For `Cn1cc(-c2ccccc2)nc1COc1ncc(C2CC2)nc1C(=O)NCc1ccccc1` [Roche-Dataset for PDE10A, Compound 59], half-maximal inhibition (IC50) required 57 nM.

With `Cc1cc(Cl)cc2c(=O)[nH]c(CCc3nc(-c4ccccc4)cn3C)nc12` [Roche-Dataset for PDE10A, Compound 70], the IC50 was 81 nM.

`Cc1nc2ccccc2nc1CCc1nc(-c2ccccc2)cn1CC1CC1` [Roche-Dataset for PDE10A, Compound 62] gave an IC50 of 9.29 nM.

`Cc1ncc(C)n2nc(CCc3nc(C)n(-c4ccccc4)n3)nc12` [Roche-Dataset for PDE10A, Compound 456]: the IC50 worked out at 748 nM.

`CCCCc1cc(NC(=O)c2c(C(=O)N3CCC3)cnn2C)n(C2CCCC2)n1` [Roche-Dataset for PDE10A, Compound 814] had a concentration for half-maximal inhibition (IC50) of 619 nM. This IC50 and that of the compound before are within 1.5-fold of each other.

`CC(C)Oc1cc(C(=O)Nc2ccn3nc(-c4ccccc4)nc3c2)cc(Cl)n1` [Roche-Dataset for PDE10A, Compound 116] returned an IC50 of 65 nM.

`O=C(Nc1cc(-c2ccccn2)nn1CCO)c1nc(C2CC2)ccc1Nc1cncnc1` [US8470820, 10] gave an IC50 of 2.25 nM. This IC50 lies about 29-fold lower than the previous one.

`CCc1nc(CNC(=O)c2cnn(C)c2C(=O)Nc2ccn3cc(-c4ccccc4)nc3n2)cs1` [Roche-Dataset for PDE10A, Compound 601] had an IC50 of 1130 nM.

Compound `Cn1nc(NC(=O)c2nc(C3CC3)ccc2Nc2cncnc2)cc1-c1ccccn1` [US8470820, 63] had an IC50 of 126 nM.

In turn, `O=C(Nc1ccc(O)c2c1CCCC2=O)c1nc(C2CC2)cnc1Nc1cncnc1` [Roche-Dataset for PDE10A, Compound 949] gave an IC50 of 10 nM.

Regarding `Cn1ncc(C(=O)N2CCC2)c1C(=O)Nc1ccnn1-c1ccccn1` [Roche-Dataset for PDE10A, Compound 1024], the IC50 was determined as 130 nM. This IC50 is about 13-fold higher than that of the compound before.

`CCOc1ccccc1-c1cn2c(n1)C[C@H](NC(=O)c1c(C(=O)N3CCC3)cnn1C)CC2` [Roche-Dataset for PDE10A, Compound 251] yielded an IC50 of 2.2 nM.

In the case of `O=C(Nc1cnoc1-c1ccccc1)c1nc(C2CC2)ccc1Nc1cncnc1` [Roche-Dataset for PDE10A, Compound 607], the IC50 came to 1.93 nM.

Turning to `Cn1cc(NC(=O)c2nc(C3CC3)ccc2Nc2cncnc2)c(C(=O)N2CCC2)n1` [US8703768, 30], the IC50 is 33 nM.

`CN(C)C(=O)c1cnn(C)c1C(=O)Nc1cc2nc(-c3ccccc3)nn2cn1` [Roche-Dataset for PDE10A, Compound 442] displayed a half-maximal inhibitory concentration (IC50) of 0.81 nM.

Regarding `O=C(Nc1cc(-c2ccccn2)nn1CC1CCCC1)c1nc(C2CC2)ccc1Nc1cncnc1` [US8470820, 31], the midpoint of inhibition, the IC50, lay at 1.12 nM.

As for `CN(C)C(=O)c1cnn(Cc2ccccc2)c1C(=O)Nc1ccn2nc(N3CCOCC3)nc2c1` [Roche-Dataset for PDE10A, Compound 1136], the IC50 worked out at 868 nM.

`O=C(Nc1cccc(S(=O)(=O)CCO)c1)c1nc(C2CC2)cnc1Nc1cncnc1` [Roche-Dataset for PDE10A, Compound 734] registered an IC50 of 8.52 nM.

Compound `CC(C)n1ncc2cc(CCc3nc(-c4ccccc4)cn3C)ncc21` [Roche-Dataset for PDE10A, Compound 48] gave an IC50 of 859 nM.

`Cn1nccc1NC(=O)c1c(C(=O)N2CCC2)cnn1C` [Roche-Dataset for PDE10A, Compound 1138] returned a concentration for half-maximal inhibition (IC50) of 1920 nM.

In turn, `O=C(Nc1ccn2nc(-c3ccccc3)nc2c1)c1onc2ccccc12` [Roche-Dataset for PDE10A, Compound 420] showed an IC50 of 194 nM.

The compound `Cn1ncc(C(=O)N2CCC2)c1C(=O)Nc1ccn2nc(-c3cccc(F)c3)nc2c1` [Roche-Dataset for PDE10A, Compound 140] returned an IC50 of 1.06 nM.

Compound `Cn1cc(-c2ccccc2)nc1/C=C/c1nc(N2CCOCC2)c2cc(Cl)ccc2n1` [Roche-Dataset for PDE10A, Compound 64] displayed an IC50 of 1.31 nM.

`Cn1nc(N2CCCC2)nc1CCc1nc2c(F)cc(F)cn2n1` [Roche-Dataset for PDE10A, Compound 407] gave an IC50 of 628 nM. Against the preceding compound, the IC50 is about 480-fold higher.

`O=C(Nc1cc(-c2ccccn2)nn1CC(F)(F)F)c1nc(C2CC2)ccc1Nc1cncnc1` [US8470820, 22]: the IC50 amounted to 2.54 nM.

Take `CN(C)c1nc2cc(NC(=O)c3c(C(=O)N4CC(F)C4)cnn3C)ccn2n1` [Roche-Dataset for PDE10A, Compound 513]: the IC50 is 20 nM.

For `Cc1c(Cl)cc(Cl)c2nc(CCc3nncn3-c3ccccc3)nn12` [Roche-Dataset for PDE10A, Compound 582], the IC50 came out at 72 nM.

`Cc1nc(CCc2nc(-c3ccccc3)cn2C)nc2ccccc12` [Roche-Dataset for PDE10A, Compound 129] displayed an IC50 of 5.25 nM.

`Cc1ncc(C)n2nc(CCc3nc(N(C)CC4CC4)nn3C)nc12` [Roche-Dataset for PDE10A, Compound 841] had an IC50 of 117 nM.

The compound `COc1ccc(-c2nc3cc(NC(=O)c4c(C(=O)N5CCC5)cnn4C)ccn3n2)cc1` [Roche-Dataset for PDE10A, Compound 820] registered an IC50 of 7.9 nM.

The compound `CNC(=O)c1cc2[nH]c(-c3ccccc3)nc2cc1NC(=O)c1c(C(=O)N2CCC2)cnn1C` [Roche-Dataset for PDE10A, Compound 439] had an IC50 of 69 nM.

The compound `CCCCc1cc(NC(=O)c2c(C(=O)N3CCC3)cnn2C)nn1C1CCCC1` [Roche-Dataset for PDE10A, Compound 966] registered an IC50 of 568 nM.

As to `Cc1c(C(F)(F)F)nc2ccc(C#Cc3nc(-c4ccccc4)cn3C)nn12` [Roche-Dataset for PDE10A, Compound 106], the IC50 was determined as 1.88 nM.

The compound `COc1ccc(NC(=O)c2nc(C3CC3)cnc2Nc2cncnc2)nn1` [Roche-Dataset for PDE10A, Compound 1054] registered an IC50 of 1480 nM.

In turn, `CN(C)C(=O)c1cnn(C)c1C(=O)Nc1ccn2cc(-c3cccc(OCCCF)c3)nc2n1` [Roche-Dataset for PDE10A, Compound 43] registered an IC50 of 7.17 nM.

The compound `Cc1nc(CCNC(=O)c2nc(C3CC3)ccc2Nc2cncnc2)n[nH]1` [Roche-Dataset for PDE10A, Compound 986] showed an IC50 of 270 nM. Compared with the last compound, the IC50 is about 38-fold higher.

Turning to `Cn1ncc(C(=O)N2CCC2)c1C(=O)Nc1cc(C2CCCCC2)n[nH]1` [Roche-Dataset for PDE10A, Compound 991], the IC50 stood at 9440 nM.

In turn, `Cc1c(Cl)cc(OC(C)C)c2nc(CCc3nc(N4CCCC4)nn3C)nn12` [Roche-Dataset for PDE10A, Compound 223] showed an IC50 of 0.69 nM. Compared with the last compound, the IC50 is about 14000-fold lower.

Turning to `Cn1ncc(Cl)c1C(=O)Nc1ccn2nc(-c3ccccc3)nc2c1` [Roche-Dataset for PDE10A, Compound 433], the IC50 turned out to be 208 nM. This IC50 lies about 300-fold higher than the previous one.

`O=C(Nc1ccc(-c2ccccn2)s1)c1nc(C2CC2)ccc1Nc1cncnc1` [US8470820, 50]: half-maximal inhibition (IC50) was put at 1.43 nM.

In turn, `Cc1cccc(-c2cn3c(n2)C[C@H](NC(=O)c2c(C(=O)N4CCC4)cnn2C)CC3)c1` [Roche-Dataset for PDE10A, Compound 141] displayed an IC50 of 7.36 nM.

The values are drawn from BindingDB's records for doi:10.1007/s10822-022-00478-x (Roche Innovation Center Basel, F. Hoffmann-La Roche Ltd., 2022).
